Source: PubChem BioAssay AID248 (DTP/NCI, 2004)
Several values for one entry are separate records, joined by “and”; a condition that tells them apart may be missing. Identical values can stand only once. Toxic doses and inconclusive results are not listed. No stated cut-off is given here; in the data, active means T/C of 150% or more; inactive means T/C below 125%.

Tested on: L1210 leukemia ip in BDF1 mice, survival T/C
Assay: NCI In Vivo Anticancer Drug Screen. Data for tumor model L1210 Leukemia (intraperitoneal) in B6D2F1 (BDF1) mice
Settings: endpoint: mean survival time, higher = longer survival
Outline: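 Each compound was tested against a transplantable tumor grown in mice. The endpoint was survival, with treated animals benchmarked against vehicle controls as a simple ratio.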

[1] = dose: 100.0 mg/kg/injection, schedule: Q01DX001 (ip), vehicle: saline
[2] = dose: 400.0 mg/kg/injection, schedule: Q01DX001 (ip), vehicle: saline
[3] = dose: 100.0 mg/kg/injection, schedule: Q04DX003 (ip), vehicle: saline
[4] = dose: 200.0 mg/kg/injection, schedule: Q04DX003 (ip), vehicle: saline
[5] = dose: 400.0 mg/kg/injection, schedule: Q04DX003 (ip), vehicle: saline
[6] = dose: 100.0 mg/kg/injection, schedule: Q04DX003 (ip), vehicle: Klucel (hydroxypropylcellulose) (HPC)
[7] = dose: 200.0 mg/kg/injection, schedule: Q04DX003 (ip), vehicle: Klucel (hydroxypropylcellulose) (HPC)
[8] = dose: 200.0 mg/kg/injection, schedule: Q01DX001 (ip), vehicle: saline
[9] = dose: 100.0 mg/kg/injection, schedule: Q01DX009 (ip), vehicle: saline
[10] = dose: 200.0 mg/kg/injection, schedule: Q01DX009 (ip), vehicle: saline
[11] = dose: 100.0 mg/kg/injection, schedule: Q01DX009 (ip), vehicle: Klucel (hydroxypropylcellulose) (HPC)
[12] = dose: 200.0 mg/kg/injection, schedule: Q01DX009 (ip), vehicle: Klucel (hydroxypropylcellulose) (HPC)
[13] = dose: 400.0 mg/kg/injection, schedule: Q01DX009 (ip), vehicle: Klucel (hydroxypropylcellulose) (HPC)

Measured: T/C

NC1CC2(CCC1=O)c1ccccc1-c1ccccc12 (stereo not given)
inactive: [1] 101 % of control | [2] 104 % of control

CCN(CC)CC
inactive: dose: 100.0 mg/kg/injection, schedule: Q04DX002 (ip), vehicle: Klucel (hydroxypropylcellulose) (HPC) 98 % of control | dose: 200.0 mg/kg/injection, schedule: Q04DX002 (ip), vehicle: Klucel (hydroxypropylcellulose) (HPC) 109 % of control | dose: 400.0 mg/kg/injection, schedule: Q04DX002 (ip), vehicle: Klucel (hydroxypropylcellulose) (HPC) 103 % of control

OCC1OC(Nc2ncnc3c2ncn3C2OC(CO)C(O)C2O)C(O)C1O (stereo not given)
inactive: dose: 12.5 mg/kg/injection, schedule: Q01DX005 (ip), vehicle: saline 96 % of control | dose: 12.5 mg/kg/injection, schedule: Q01DX009 (ip), vehicle: saline 100 % of control | dose: 25.0 mg/kg/injection, schedule: Q01DX005 (ip), vehicle: saline 104 % of control | dose: 25.0 mg/kg/injection, schedule: Q01DX009 (ip), vehicle: saline 103 % of control | dose: 50.0 mg/kg/injection, schedule: Q01DX005 (ip), vehicle: saline 117 % of control

CN1C(=O)CCC1=O
inactive: [3] 103 % of control | [4] 98 % of control | [5] 98 % of control

C[CH2][Sb]([CH2]C)([CH2]C)([O]C(C)=O)[O]C(C)=O
inactive: dose: 5.0 mg/kg/injection, schedule: Q04DX002 (ip), vehicle: saline with Tween-80 97 % of control | dose: 10.0 mg/kg/injection, schedule: Q04DX002 (ip), vehicle: saline with Tween-80 97 % of control | dose: 20.0 mg/kg/injection, schedule: Q04DX002 (ip), vehicle: saline with Tween-80 104 % of control

O=c1cc(C2CCCCC2)[nH]c(=S)[nH]1
inactive: dose: 50.0 mg/kg/injection, schedule: Q01DX001 (ip), vehicle: carboxymethylcellulose (CMC) 101 % of control | dose: 100.0 mg/kg/injection, schedule: Q01DX001 (ip), vehicle: carboxymethylcellulose (CMC) 92 % of control | dose: 200.0 mg/kg/injection, schedule: Q01DX001 (ip), vehicle: carboxymethylcellulose (CMC) 86 % of control | dose: 400.0 mg/kg/injection, schedule: Q01DX001 (ip), vehicle: carboxymethylcellulose (CMC) 90 % of control

CNc1ccc(OC)cc1
inactive: dose: 100.0 mg/kg/injection, schedule: Q01DX009 (ip), vehicle: other 95 % of control | dose: 100.0 mg/kg/injection, schedule: Q04DX003 (ip), vehicle: other 101 % of control | dose: 200.0 mg/kg/injection, schedule: Q01DX009 (ip), vehicle: other 111 % of control | dose: 200.0 mg/kg/injection, schedule: Q04DX003 (ip), vehicle: other 101 % of control | dose: 400.0 mg/kg/injection, schedule: Q01DX009 (ip), vehicle: other 124 % of control | dose: 400.0 mg/kg/injection, schedule: Q04DX003 (ip), vehicle: other 104 % of control

CCOC1=NC(C)(C)CC(C)O1 (stereo not given)
inactive: dose: 25.0 mg/kg/injection, schedule: Q04DX003 (ip), vehicle: saline with Tween-80 95 % of control | dose: 50.0 mg/kg/injection, schedule: Q04DX003 (ip), vehicle: saline with Tween-80 101 % of control | dose: 100.0 mg/kg/injection, schedule: Q04DX003 (ip), vehicle: saline with Tween-80 102 % of control

O=[N+]([O-])c1cccc(Cl)c1O
inactive: dose: 100.0 mg/kg/injection, schedule: Q01DX001 (ip), vehicle: gum acacia 98 % of control | dose: 200.0 mg/kg/injection, schedule: Q01DX001 (ip), vehicle: gum acacia 100 % of control

CCCCCCCCCCCCCCCC(=O)NCCO
inactive: dose: 50.0 mg/kg/injection, schedule: Q01DX009 (ip), vehicle: saline sonified 96 % of control | dose: 50.0 mg/kg/injection, schedule: Q04DX003 (ip), vehicle: Klucel (hydroxypropylcellulose) (HPC) 91 % of control | dose: 100.0 mg/kg/injection, schedule: Q01DX009 (ip), vehicle: saline sonified 91 % of control | [6] 106 % of control | dose: 200.0 mg/kg/injection, schedule: Q01DX009 (ip), vehicle: saline sonified 96 % of control | [7] 96 % of control and 89 % of control

CN1C2CCC1CC(OC(=O)C(CO)c1ccccc1)C2 (stereo not given)
inactive: dose: 31.25 mg/kg/injection, schedule: Q01DX Z (ip), vehicle: saline 100 % of control | dose: 62.5 mg/kg/injection, schedule: Q01DX Z (ip), vehicle: saline 102 % of control | dose: 125.0 mg/kg/injection, schedule: Q01DX Z (ip), vehicle: saline 98 % of control

Cc1ccccc1N=C(N)Nc1ccccc1C
inactive: dose: 2.5 mg/kg/injection, schedule: Q01DX009 (ip), vehicle: saline with Tween-80 103 % of control | dose: 5.0 mg/kg/injection, schedule: Q01DX001 (ip), vehicle: carboxymethylcellulose (CMC) 108 % of control | dose: 5.0 mg/kg/injection, schedule: Q01DX009 (ip), vehicle: saline with Tween-80 97 % of control | dose: 6.25 mg/kg/injection, schedule: Q01DX009 (ip), vehicle: other 95 % of control | dose: 6.25 mg/kg/injection, schedule: Q04DX003 (ip), vehicle: other 96 % of control | dose: 10.0 mg/kg/injection, schedule: Q01DX001 (ip), vehicle: carboxymethylcellulose (CMC) 114 % of control | dose: 10.0 mg/kg/injection, schedule: Q01DX009 (ip), vehicle: saline with Tween-80 97 % of control | dose: 12.5 mg/kg/injection, schedule: Q01DX001 (ip), vehicle: other 96 % of control | dose: 12.5 mg/kg/injection, schedule: Q01DX009 (ip), vehicle: other 95 % of control | dose: 12.5 mg/kg/injection, schedule: Q04DX003 (ip), vehicle: other 93 % of control | dose: 20.0 mg/kg/injection, schedule: Q01DX001 (ip), vehicle: carboxymethylcellulose (CMC) 117 % of control | dose: 25.0 mg/kg/injection, schedule: Q01DX001 (ip), vehicle: other 96 % of control | dose: 25.0 mg/kg/injection, schedule: Q01DX009 (ip), vehicle: other 94 % of control | dose: 25.0 mg/kg/injection, schedule: Q04DX003 (ip), vehicle: other 100 % of control

O=C1OC(=C(Br)Br)C2C3C=CC(CC3)C12 (stereo not given)
inactive: [3] 95 % of control | [4] 98 % of control | [5] 98 % of control

COc1ccccc1/C=C/c1ccnc2ccccc12
inactive: [1] 101 % of control | [3] 97 % of control | [8] 102 % of control | [4] 100 % of control | [2] 98 % of control | [5] 93 % of control

CCCCC(CC)CP(=O)(CC(CC)CCCC)CC(CC)CCCC (stereo not given)
inactive: dose: 55.0 mg/kg/injection, schedule: Q01DX Z (ip), vehicle: methylcellulose (MC) 104 % of control | dose: 83.0 mg/kg/injection, schedule: Q01DX Z (ip), vehicle: methylcellulose (MC) 100 % of control | dose: 125.0 mg/kg/injection, schedule: Q01DX Z (ip), vehicle: methylcellulose (MC) 108 % of control

NC(Cc1cc(Br)c(O)c(Br)c1)C(=O)O (stereo not given)
inactive: [1] 97 % of control | [9] 90 % of control | [3] 103 % of control | [8] 97 % of control | [10] 109 % of control | [4] 98 % of control | [2] 91 % of control | dose: 400.0 mg/kg/injection, schedule: Q01DX009 (ip), vehicle: saline 93 % of control | [5] 97 % of control

C1CCC(C2CC2)CC1
inactive: dose: 50.0 mg/kg/injection, schedule: Q01DX009 (ip), vehicle: saline 97 % of control | [9] 94 % of control | [10] 94 % of control

COc1cc(C=Nc2cccc(C(F)(F)F)c2)ccc1O
inactive: [11] 95 % of control | [6] 102 % of control | [12] 86 % of control | [7] 98 % of control | [13] 101 % of control | dose: 400.0 mg/kg/injection, schedule: Q04DX003 (ip), vehicle: Klucel (hydroxypropylcellulose) (HPC) 104 % of control

CCCCCC(NC(=O)CCl)C(=O)O (stereo not given)
inactive: [11] 91 % of control | [12] 96 % of control | [13] 92 % of control

CCN(CC)CC(OC)C(COC)OC(=O)C(c1ccccc1)c1ccccc1 (stereo not given)
inactive: dose: 13.0 mg/kg/injection, schedule: Q01DX Z (ip), vehicle: saline 105 % of control | dose: 20.0 mg/kg/injection, schedule: Q01DX Z (ip), vehicle: saline 98 % of control | dose: 30.0 mg/kg/injection, schedule: Q01DX Z (ip), vehicle: saline 102 % of control
